Source: patent US9746480B2, “Human myeloid derived suppressor cell cancer markers” (University of Southern California, priority 2011, dated 2017)
Entries after “also recorded” stand apart in the source; their conditions may differ.

Experiments:
[1] = tested on: CD33^+ MDSC; experiment: Suppression Assay in presence or absence of specific inhibitors of MDSC suppressive mechanisms; format: cell-based, human; conditions: tumor cell line-induced CD33+ MDSC, CD3/CD28-stimulated autologous T cells, with inhibitor
Procedure: Further characterization of tumor-induced canonical CD33^+ MDSC subset by analysis of the expression of putative MDSC suppression genes was performed. For these studies, expression of putative suppression genes was measured in tumor cell line-induced MDSC, including those induced by SCCL-MT1 HNSCC cell line and those induced by 4-998 osteogenic sarcoma, DU 145 prostate carcinoma, CAKI-1 renal cell carcinoma, SK-OV-3 ovarian carcinoma, and SW 608 and SW 732 colorectal adenocarcinoma cell lines (FIG. 6A), and compared to expression levels in normal, non-suppressive CD33^+ myeloid cells from medium only cultures. […] To determine the dominant mechanism of T cell suppression by this canonical CD33^+ MDSC subset, suppression assays were repeated in the presence or absence of specific inhibitors of ARG-1 (nor-NOHA), iNOS (L-NMMA), NOX2 (apocynin), VEGF (neutralizing antibody Avastin), or TGFβ1 (SB431542 or neutralizing antibody 1D11).

[2] = tested on: CD33^+ MDSC; experiment: Reversal of suppressive function of tumor cell line-induced CD33+ MDSC by drugs; format: cell-based, human; conditions: drug-treated CD33+ MDSC
[3] = tested on: CD33^+ MDSC; experiment: qRT-PCR gene expression in treated CD33+ MDSC; format: cell-based, human; conditions: treated vs untreated CD33+ MDSC, mRNA
[4] = tested on: CD11b^+ MDSC; experiment: qRT-PCR gene expression in treated CD11b+ MDSC; format: cell-based, human; conditions: treated vs untreated CD11b+ MDSC, mRNA
[5] = tested on: CD11b^+ MDSC; experiment: Functional inhibition of tumor cell line-induced CD11b+ MDSC by drugs; conditions: drug-treated CD11b+ MDSC

Molecule | suppression of T cell proliferation by CD33+ MDSC [1] | CD33+ MDSC suppressive function [2] | HIF1α expression [3] | STAT3 expression [3] | C/EBPβ expression [4] | HIF1α expression [4] | STAT3 expression [4] | CD11b+ MDSC suppressive function [5] | ARG-1 expression [3] | C/EBPβ expression [3] | NOX2-component NCF1 expression [3] | iNOS expression [3] | ARG-1 expression [4] | NOX2-component NCF1 expression [4] | iNOS expression [4]
N=C(NO)NCC[C@H](N)C(=O)O [nor-NOHA] | statistically significant decreases in suppression |  |  |  |  |  |  |  |  |  |  |  |  |  | 
COc1cc(C(C)=O)ccc1O [apocynin] | statistically significant decreases in suppression |  |  |  |  |  |  |  |  |  |  |  |  |  | 
CC1=C(/C=C/C(C)=C/C=C/C(C)=C/C(=O)O)C(C)(C)CCC1 [ATRA] |  | Inhibition; also recorded: Reversal | decreased | decreased | decreased | no change | no change | Functional inhibition |  |  |  |  |  |  | 
lipopolysaccharide |  |  | further up-regulation | further up-regulation | further up-regulation | further up-regulation | further up-regulation |  | increased expression | further up-regulation | increased expression | increased expression | increased expression | increased expression | increased expression
